Data reported in ChEMBL document CHEMBL1201862, “PubChem BioAssay data set” (2004).
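Values below derive from 48-hour exposures of cells grown in 96-well plates, with endpoints linearly interpolated between the two concentrations bracketing the appropriate inhibition level. Here, GI50 denotes the concentration required for 50% inhibition of growth.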 Calls of active or inactive are those of the source. Cut-off read from the data, not from the text of the source: active = GI50 up to about 1.1 µM and inactive = higher.

Tests used:
Assay in all cases: DTP human tumour cell line panel, 48 h
786-0 = system: 786-0
A549 = system: A549
DU-145 = system: DU-145
EKVX = system: EKVX
HCC 2998 = system: HCC 2998
HCT-116 = system: HCT-116
HOP-92 = system: HOP-92
HT-29 = system: HT-29
K562 = system: K562
LOX IMVI = system: LOX IMVI
MDA-MB-435 = system: MDA-MB-435
MDA-N = system: MDA-N
NCI-H23 = system: NCI-H23
NCI/ADR-RES = system: NCI/ADR-RES
OVCAR-8 = system: OVCAR-8
SW-620 = system: SW-620
UO-31 = system: UO-31
SF-268 = system: SF-268
NCI-H460 = system: NCI-H460
OVCAR-5 = system: OVCAR-5

Measured: GI50

CNc1ncnc2c1nnn2C
inactive: 786-0 > 100 µM | A549 > 100 µM | DU-145 > 100 µM | EKVX > 100 µM | HCC 2998 > 100 µM | HCT-116 > 100 µM | HOP-92 > 100 µM | HT-29 > 100 µM | K562 > 100 µM | LOX IMVI > 100 µM | MDA-MB-435 > 100 µM | MDA-N > 100 µM | NCI-H23 > 100 µM | NCI/ADR-RES > 100 µM | OVCAR-8 > 100 µM | SW-620 > 100 µM | UO-31 > 100 µM

CSc1nc(NC(C)C)c2c(n1)Sc1nc3ccccc3n1C2O (stereo not drawn)
inactive: 786-0 4.11 µM | A549 3.41 µM | DU-145 3.18 µM | EKVX 11.5 µM | HCC 2998 5.55 µM | HCT-116 4.13 µM | HOP-92 89.5 µM | HT-29 3.09 µM | K562 3.15 µM | LOX IMVI 7 µM | MDA-MB-435 1.74 µM | MDA-N 2.75 µM | NCI-H23 4.79 µM | NCI/ADR-RES 2.56 µM | OVCAR-8 4.9 µM | SF-268 4.43 µM | SW-620 2.27 µM | UO-31 5.71 µM

CCC(CC)(CO)CNc1cc(Cl)nc(N)n1
inactive: 786-0 > 100 µM | A549 > 100 µM | DU-145 > 100 µM | EKVX 79.3 µM | HCT-116 > 100 µM | HOP-92 11.3 µM | HT-29 > 100 µM | K562 > 100 µM | LOX IMVI > 100 µM | MDA-MB-435 > 100 µM | MDA-N 89.5 µM | NCI-H23 > 100 µM | NCI-H460 > 100 µM | NCI/ADR-RES > 100 µM | OVCAR-5 > 100 µM | OVCAR-8 > 100 µM | SF-268 55.6 µM | SW-620 > 100 µM | UO-31 > 100 µM

NCC1OC(n2cnc3c(N)ncnc32)CC1O (stereo not drawn)
inactive: 786-0 > 100 µM | A549 > 100 µM | DU-145 > 100 µM | EKVX > 100 µM | HCT-116 > 100 µM | HOP-92 > 100 µM | HT-29 > 100 µM | K562 > 100 µM | LOX IMVI > 100 µM | MDA-MB-435 > 100 µM | MDA-N > 100 µM | NCI-H23 > 100 µM | NCI-H460 > 100 µM | NCI/ADR-RES > 100 µM | OVCAR-5 > 100 µM | OVCAR-8 > 100 µM | SF-268 > 100 µM | SW-620 > 100 µM | UO-31 > 100 µM

O=Cc1c2n(c3ccccc13)N[C@@](Cc1ccc(O)cc1)(C(=O)O)C2
inactive: 786-0 89.1 µM | A549 > 100 µM | DU-145 > 100 µM | EKVX > 100 µM | HCT-116 38.3 µM | HOP-92 > 100 µM | HT-29 > 100 µM | K562 97.3 µM | LOX IMVI 55.2 µM | MDA-MB-435 > 100 µM | MDA-N > 100 µM | NCI-H23 > 100 µM | NCI/ADR-RES 35.9 µM | OVCAR-5 > 100 µM | OVCAR-8 > 100 µM | SF-268 36 µM | SW-620 56.8 µM | UO-31 > 100 µM

C/C=C/COc1cc(NC(=S)c2ccoc2C)ccc1OC
inactive: 786-0 75.3 µM | A549 > 100 µM | DU-145 71.1 µM | EKVX 49.8 µM | HCC 2998 > 100 µM | HCT-116 > 100 µM | HOP-92 16.7 µM | HT-29 > 100 µM | LOX IMVI > 100 µM | MDA-MB-435 > 100 µM | MDA-N > 100 µM | NCI-H23 > 100 µM | NCI/ADR-RES 39.4 µM | OVCAR-5 > 100 µM | OVCAR-8 57.9 µM | SF-268 44.3 µM | SW-620 > 100 µM | UO-31 61.4 µM

CSC1=C(SC)SC(=C2SC3=C(SC(=C4SCCS4)S3)S2)S1
inactive: 786-0 > 100 µM | A549 > 100 µM | DU-145 > 100 µM | EKVX > 100 µM | HCC 2998 > 100 µM | HCT-116 > 100 µM | HOP-92 > 100 µM | HT-29 > 100 µM | LOX IMVI > 100 µM | MDA-MB-435 > 100 µM | MDA-N > 100 µM | NCI-H23 > 100 µM | NCI-H460 > 100 µM | NCI/ADR-RES > 100 µM | OVCAR-5 > 100 µM | OVCAR-8 > 100 µM | SF-268 > 100 µM | SW-620 > 100 µM | UO-31 > 100 µM

CCC1=CCC23C(=O)C=CC(=O)C2(C1)C(=O)c1cccc(OC)c1C3=O (stereo not drawn)
inactive: 786-0 11.9 µM | A549 23.8 µM | DU-145 16.9 µM | EKVX 13.2 µM | HCT-116 14.6 µM | HOP-92 15.1 µM | HT-29 20.3 µM | K562 12.9 µM | LOX IMVI 15.1 µM | MDA-MB-435 17.1 µM | MDA-N 16.5 µM | NCI-H23 21.1 µM | NCI-H460 28.2 µM | NCI/ADR-RES 20.2 µM | OVCAR-5 16.2 µM | OVCAR-8 15.2 µM | SF-268 17.6 µM | SW-620 15.5 µM | UO-31 10.8 µM

COc1ccc(CN2C[C@H]3[C@@H](CC(=O)O[C@H]3C)CC2=O)cc1
inactive: 786-0 > 100 µM | A549 > 100 µM | DU-145 > 100 µM | EKVX > 100 µM | HCC 2998 > 100 µM | HCT-116 > 100 µM | HOP-92 > 100 µM | HT-29 > 100 µM | K562 > 100 µM | MDA-MB-435 > 100 µM | MDA-N > 100 µM | NCI-H23 > 100 µM | NCI-H460 > 100 µM | NCI/ADR-RES > 100 µM | OVCAR-5 > 100 µM | OVCAR-8 > 100 µM | SF-268 > 100 µM | SW-620 > 100 µM | UO-31 > 100 µM

C[C@@H]1OC2(O)[C@@H]3CCCN3C(=O)N(Cc3ccccc3)N2C1=O (stereo partly drawn)
inactive: 786-0 > 100 µM | A549 > 100 µM | DU-145 > 100 µM | EKVX > 100 µM | HCC 2998 > 100 µM | HCT-116 > 100 µM | HOP-92 > 100 µM | HT-29 > 100 µM | LOX IMVI > 100 µM | MDA-MB-435 > 100 µM | MDA-N > 100 µM | NCI-H23 > 100 µM | NCI-H460 > 100 µM | NCI/ADR-RES > 100 µM | OVCAR-5 > 100 µM | OVCAR-8 > 100 µM | SF-268 > 100 µM | SW-620 > 100 µM

CN(C)CCCN1c2ccccc2C(C)(C)c2ccccc21 [DIMETACRINE]
inactive: 786-0 14.4 µM | A549 14.8 µM | DU-145 15.9 µM | EKVX 17.6 µM | HCT-116 14.8 µM | HOP-92 14.6 µM | HT-29 11.8 µM | K562 13.3 µM | LOX IMVI 15.1 µM | MDA-MB-435 13.2 µM | MDA-N 14.2 µM | NCI-H23 16.3 µM | NCI-H460 13.6 µM | NCI/ADR-RES 17.1 µM | OVCAR-5 14.1 µM | OVCAR-8 16.1 µM | SF-268 13.3 µM | SW-620 21.2 µM | UO-31 13.9 µM
